Measured values as given in patent US8318950B2, “N-acyl amino acid derivatives, a method for the preparation thereof, a pharmaceutical composition and use thereof as anti-allergic, anti-inflammatory and hypolipidemic agents” (Otkrytoe Aktsionernoe Obschestvo-Otechestvennye Lekarstva, priority 2005, dated 2012).

Columns and labels:
[1] = test system: guinea pig blood basophils; experiment: In vitro ovalbumin (OA)-induced blood basophil degranulation of immunized guinea pig; format: cell-based
Method: Leukocytes from guinea pig blood were isolated according to the Freemel's method [Immunologicheskiye Metody under edition of G. Frimel/Moscow., “Meditsina” publishers, 1987, p. 222 in the inventor's modification].
Guinea pigs of both sexes weighing from 600 to 800 g were used to conduct the test. The animals were once immunized with a mixture of 10 μg ovalbumin and 100 mg aluminum hydroxide per one animal according to Andersson [Anderson P. Antigen-induced bronchial anaphylaxis in actively sensitized guinea-pigs.//Allergy. 1980. Vol. 35. P. 63-71].
Under ester anesthesia, 15 ml blood were drawn from guinea pig heart. Double precipitation of cells using EDTA and a citrate-containing precipitating liquid was used to isolate basophils in the leukocyte suspension.
Blood was mixed with 5% EDTA.Na2 2H2O (“Sigma”) solution at 9:1 ratio and in 30 minutes it was subjected to mild centrifugation (for 12 minutes at 80 g). Supernatant was collected and centrifuged for 15 minutes at 500 g.
To the remaining cells, a citrate-containing precipitating liquid (3) was added at proportion 3:10 (it was thermostated at 37° C. for 30 minutes). A supernatant fraction enriched by leukocytes was centrifuged for 7 minutes at 100 g. To leukocyte precipitate, 0.85% NaCl solution was added and cellular concentration was brought to 30×10^3 μl.
Protocol of the in vitro basophil degranulation test [Spravochnil po klinicheskim laboratomym metodam issledovaniya (A reference book on clinical-laboratory examination methods)/Edited by E. A. Cost/Moscow, “Meditsina” publishers, 1975, p. 130].
For the test, a centrifuge tube (3 tubes per each sample) was filled with 300 μl cellular suspension, then salt solution of a tested compound (or a salt solution in the control of spontaneous and maximum degranulation) was added and pre-incubated at 37° C. for 15 minutes, then into each tube 300 μl 1% OA solution was added (in the control of spontaneous degranulation a salt solution in the same amount was added) and once more pre-incubated at 37° C. for 10 minutes. Functional leukocyte concentration was 10^4/μl. Samples (100 μl) were taken off from each tube into separate tubes to assess a complete basophil degranulation, and to the remained cells, a cooled salt solution was added (5 ml into each tube) to arrest degranulation reaction, then the tubes were centrifuged for 7 min at 100 g, and from precipitate, preparations for microscopy were prepared. The preparations were fixed and stained according to the method of Seder et al. [Seder R. A. et al. Mouse splenic and bone marrow cell populations that express high—affinity Fcε receptors and produce interleukin-4 are highly enriched in basophils.//Proc. Natl. Acad. USA, 1991, V. 88, P. 2835-2839].
In order to detect a specific basophil granulation, the dye 0.5% alcyanic blue (pH 1.0) was used, nuclei were additionally stained with safranin (0.1% solution in 1% acetic acid). The preparations were used to assess a total degranulation inhibition.
A total degranulation inhibition (DI) (%) was calculated according to the formula: […]
max—% of degranulated basophils at the maximum degranulation (OA)
spontaneous—% of degranulated basophils in spontaneous degranulation (control)
experimental—% of degranulated basophils following exposure to the tested compound.
Assessment of a Complete Basophil Degranulation
Samples selected following basophil degranulation test (100 μl each) were poured into tubes with the dye (0.5% alcyane blue, pH 1.0) at ratio 1:1. Staining was carried out at room temperature for not less than 50 min. Stained basophils were calculated using the Fooks-Rosenthal chamber. Inhibition of a complete basophil degranulation (ICD) was calculated according to the formula: ICD(%)=1−[(Mm(c)−Mm(exper.)]/Mm(c)−Mm(OA)]×100, wherein
M m (c)—mean (by three samples) basophil number in the spontaneous basophil degranulation test
M±m (OA)—mean (by three samples) basophil number in the maximum antigen-induced basophil degranulation test; […]

[2] = test system: antigen-induced bronchial spasm in sensitized guinea pigs; experiment: Systemic anaphylaxis in vivo: antigen-induced bronchial spasm in ovalbumin-sensitized conscious guinea pigs; parameters: species or system guinea pig
Source text: A bronchial spasm model in conscious guinea pigs actively sensitized by exposure to aerosol ovalbumin as an antigen was used [Kovaleva V. L. “Metodicheskiye ukazaniya po izucheniyu bronkholiticheskikh I protivovospalitel'nykh sredstv.//Rukovodstvo po experimental'nomy (doklinicheskomu) izucheniyu novykh pharmacologicheskikh veshchestv, Moscow. 2000. pp. 242-250].
Guinea pigs were sensitized by ovalbumin according to the method of Andersson [Anderson P. Antigen-induced bronchial anaphylaxis in actively sensitized guinea-pigs.//Allergy. 1980. Vol. 35. P. 63-71] and in 1-2 months following sensitization, bronchial spasm was induced by aerosol administration of albumin booster dose (3 mg/kg in 1 ml normal saline).
In test groups, guinea pigs were for three days administered with tested compounds at doses 10 μg/kg, 50 μg/kg, and 150 μg/kg, using a probe. In the other group of experiments, the tested compounds at dose 50 μg/kg (in 1 ml normal saline) were administered nasally (using a nebulizer) also once daily for three days. The control group was administered with normal saline. One hour post the last administration of substances, ovalbumin was administered by inhalation using a nebulizer, and intensity and duration (in seconds) of bronchial spasm reaction in animals was assessed.

[3] = test system: endogenous hypercholesterolemia in guinea pigs; experiment: Model of endogenous hypercholesterolemia in guinea pigs (fat loading); format: in vivo, guinea pig; details: during 20 days, doses from 50 to 1,500 μg/kg
[4] = by inhalation, 50 μg/kg, once daily for three days
[5] = intragastric, 10 μg/kg, three days
[6] = intragastric, 150 μg/kg, three days

O=C(O)CCCC(=O)N[C@@H](Cc1c[nH]cn1)C(=O)O [Compound IV, N^α-glutaryl-L-histidine]
Number of completely degranulated basophils ([1]; 10^−3 M): 2.6 ± 2.6 % | Number of completely degranulated basophils ([1]; 10^−4 M): 2.9 ± 1.6 % | Number of completely degranulated basophils ([1]; 10^−5 M): 0% | Number of completely degranulated basophils ([1]; 10^−6 M): 3.9 ± 0.6% | Number of completely degranulated basophils ([1]; 10^−7 M): 9.1 ± 0.8% | inhibition at 1000 µM ([1]; Cavia porcellus, 10^−3 M, read-out: Complete degranulation inhibition (CDI)): 99.2 ± 11.2% | inhibition at 100 µM ([1]; Cavia porcellus, 10^−4 M, read-out: Complete degranulation inhibition (CDI)): 99.5 ± 12% | inhibition at 10 µM ([1]; Cavia porcellus, 10^−5 M, read-out: Complete degranulation inhibition (CDI)): 114 ± 2.7% | inhibition at 1 µM ([1]; Cavia porcellus, 10^−6 M, read-out: Complete degranulation inhibition (CDI)): 90 ± 1.8% | inhibition at 0.1 µM ([1]; Cavia porcellus, 10^−7 M, read-out: Complete degranulation inhibition (CDI)): 76.7 ± 1.5% | degranulation inhibition in the test of complete OA-induced degranulation ([1]; calcium free medium): ~100% | Duration of acute phase [2, 4]: 0 s | Duration of sub-acute phase [2, 4]: 400 ± 25 s | Duration of acute phase [2, 5]: 68.0 ± 54.7 s | Total reaction time [2, 5]: 428.0 ± 75.0 s | Duration of acute phase [2, 6]: 72.0 ± 42.1 s | Total reaction time [2, 6]: 337.0 ± 78.5 s | lowering total cholesterol level at different doses (FIG. 1) [3]: practically similarly effective in lowering total cholesterol level
